Counter-ions that a name gives are not always drawn. Like-named read-outs stand apart in the source and are kept apart here.
What was measured:
[1] = test system: Staphulococcus aureus (ATCC 29213); assay: Minimum inhibitory concentration (MIC) assay, Example 33; assay type: cell-based, Staphylococcus aureus; conditions: Staphylococcus aureus
How it was run: (§1)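 Broth microdilution MIC per CLSI guidelines, in CAMHB with serial 2-fold compound dilutions. Bacterial inocula were adjusted to a 0.5 McFarland standard, then diluted 1:100 and 1:2 in the wells. Plates were incubated at 35 °C, and the MIC was read according to CLSI.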

[2] = test system: Aspergillus niger (CMCC 98003); assay: as above; assay type: cell-based; conditions: for MIC: Aspergillus niger; for MIC Aspergillus niger: n = 2
How it was run: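 Conidia gently probed from sporulating colonies into RPMI 1640, set to 0.09-0.13 at 530 nm, then diluted 1:50 and mixed 1:2 with 2-fold serially diluted compounds. Following CLSI guidelines, incubation was at 35 °C before the MIC was recorded.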

pH (Table 1) = assay type: physicochemical
[3] = test system: Pseudomonas aeruginosa (ATCC 27853); assay: Time kill study, Example 33 (0 to 5 min); assay type: cell-based; conditions: 1×MIC
How it was run: (§2)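 Read-out: Log10 CFU/mL by colony count on agar after 24 to 48 hrs. Exposure: strain suspension and compound solution at equal volume, CLSI method, samples at 0 min, 30 sec, 1 min and 5 mins diluted in test medium before plating.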

[4] = test system: Staphylococcus aureus (ATCC 29213); assay: Time kill study, Example 33 (0 to 5 min); assay type: cell-based; conditions: 1×MIC
How it was run: as §2

[5] = test system: Escherichia coli (ATCC 25922); assay: Time kill study, Example 33 (0 to 5 min); assay type: cell-based; conditions: 1×MIC
How it was run: as §2

[6] = test system: Candida albicans (ATCC 90029); assay: Minimum inhibitory concentration (MIC) assay, Example 33; assay type: cell-based; conditions: Candida albicans
How it was run: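 MIC read per CLSI after incubation at 35° C. Colonies in RPMI 1640 adjusted to OD530 0.08–0.13, diluted 1:50 and 1:20 to twice test density, then added 1:2 to wells holding 2-fold serial drug dilutions in RPMI 1640 (CLSI microdilution).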

[7] = Solubility (Sol., Table 1); assay type: physicochemical
[8] = test system: Pseudomonas aeruginosa (ATCC 27853); assay: Minimum inhibitory concentration (MIC) assay, Example 33; assay type: cell-based; conditions: Pseudomonas aeruginosa
How it was run: as §1

[9] = test system: Escherichia coli (ATCC 25922); assay: as above; assay type: cell-based; conditions: Escherichia coli
How it was run: as §1

[10] = test system: Candida albicans (ATCC 90029); assay: Time kill study, Example 33 (0 to 5 min); assay type: cell-based; conditions: 1×MIC
How it was run: as §2

[11] = ATCC29213, read-out: MIC S. aureus, n = 1
[12] = ATCC29213, read-out: MIC S. aureus, n = 2
[13] = CMCC98003, read-out: MIC Aspergillus niger
[14] = ATCC90029, read-out: MIC Candida albicans, n = 1
[15] = ATCC90029, read-out: MIC Candida albicans, n = 2
[16] = ATCC27853, read-out: MIC P. aeruginosa, n = 1
[17] = ATCC27853, read-out: MIC P. aeruginosa, n = 2
[18] = ATCC25922, Table 19 summary of Example 33 and Example 35
[19] = ATCC25922, read-out: MIC E. coli, n = 1
[20] = ATCC25922, read-out: MIC E. coli, n = 2

Row | Compound | MIC [1, 11] | MIC [1, 12] | MIC ([2]; CMCC98003) | MIC [2, 13] | MIC Aspergillus niger [2] | pH (pH (Table 1)) | Viable counts, Pseudomonas aeruginosa time kill study ([3]; 0.5 min) | Viable counts, Pseudomonas aeruginosa time kill study ([3]; 1 min) | Viable counts, Pseudomonas aeruginosa time kill study ([3]; 5 min) | Viable counts, Pseudomonas aeruginosa time kill study ([3]; time 0) | Viable counts, Staphylococcus aureus time kill study ([4]; 0.5 min) | Viable counts, Staphylococcus aureus time kill study ([4]; 1 min) | Viable counts, Staphylococcus aureus time kill study ([4]; 5 min) | Viable counts, Staphylococcus aureus time kill study ([4]; time 0) | Viable counts, Escherichia coli time kill study ([5]; 0.5 min) | Viable counts, Escherichia coli time kill study ([5]; 1 min) | Viable counts, Escherichia coli time kill study ([5]; 5 min) | Viable counts, Escherichia coli time kill study ([5]; time 0) | MIC ([6]; ATCC90029, Table 19 summary) | MIC [6, 14] | also measured
1 | CCCCCCCCCCCCCCOC(=O)C(C)N(C)C (stereo not drawn) [Nex-66, Tetradecyl 2-(dimethylamino)propanoate hydrochloride] | 3130 µg/mL | 3130 µg/mL | > 12500 µg/mL | > 12500 µg/mL | >12500 µg/mL | 2.35 | 5.91 Log10 CFU/mL | 5.68 Log10 CFU/mL | 5.56 Log10 CFU/mL | 5.64 Log10 CFU/mL | 6.5 Log10 CFU/mL | 6.41 Log10 CFU/mL | 6.39 Log10 CFU/mL | 6.27 Log10 CFU/mL | 5.91 Log10 CFU/mL | 6.03 Log10 CFU/mL | 5.81 Log10 CFU/mL | 5.7 Log10 CFU/mL | > 12500 µg/mL | > 12500 µg/mL | MIC ([1]; ATCC29213, Table 19 summary): 3130 µg/mL; MIC [6, 15]: > 12500 µg/mL; Sol. [7]: 48%; MIC ([8]; ATCC27853, Table 19 summary): 6250 µg/mL; MIC [8, 16]: 6250 µg/mL; MIC [8, 17]: 6250 µg/mL; MIC [9, 18]: 3130 µg/mL; MIC [9, 19]: 3130 µg/mL; MIC [9, 20]: 3130 µg/mL
2 | CCCCCCCCCCCOC(=O)C(C)N(C)C (stereo not drawn) [Nex-67, Undecyl 2-(dimethylamino)propanoate hydrochloride] | 3130 µg/mL | 1560 µg/mL | 12500 µg/mL | 12500 µg/mL | 12500 µg/mL | 3.77 | <4.0 Log10 CFU/mL | <3.70 Log10 CFU/mL | <3.52 Log10 CFU/mL | 5.71 Log10 CFU/mL | 6.1 Log10 CFU/mL | 6.13 Log10 CFU/mL | 5.88 Log10 CFU/mL | 6.27 Log10 CFU/mL | 5.81 Log10 CFU/mL | 5.28 Log10 CFU/mL | 3.82 Log10 CFU/mL | 5.64 Log10 CFU/mL | 6250 µg/mL | 6250 µg/mL | Viable counts, Candida albicans time kill study ([10]; 0.5 min): 5.53 Log10 CFU/mL; Viable counts, Candida albicans time kill study ([10]; 1 min): 5.49 Log10 CFU/mL; Viable counts, Candida albicans time kill study ([10]; 5 min): 5.41 Log10 CFU/mL; Viable counts, Candida albicans time kill study ([10]; time 0): 5.58 Log10 CFU/mL; MIC [6, 15]: 6250 µg/mL; Sol. [7]: 81%; MIC ([8]; ATCC27853, Table 19 summary): 6250 µg/mL; MIC [8, 16]: 6250 µg/mL; MIC [8, 17]: 6250 µg/mL; MIC [9, 18]: 1560 µg/mL; MIC [9, 19]: 1560 µg/mL; MIC [9, 20]: 1560 µg/mL
3 | CCCCCCCCCCCCCOC(=O)C(C)N(C)C (stereo not drawn) [Nex-69, Tridecyl 2-(dimethylamino)propanoate hydrochloride] | 3130 µg/mL | 3130 µg/mL | > 12500 µg/mL | > 12500 µg/mL | >12500 µg/mL | 1.64 | 5.75 Log10 CFU/mL | 5.74 Log10 CFU/mL | 5.21 Log10 CFU/mL | 5.65 Log10 CFU/mL | 6.39 Log10 CFU/mL | 6.31 Log10 CFU/mL | 6.38 Log10 CFU/mL | 6.41 Log10 CFU/mL | 5.72 Log10 CFU/mL | 5.54 Log10 CFU/mL | <3.52 Log10 CFU/mL | 6.25 Log10 CFU/mL | 12500 µg/mL | 12500 µg/mL | MIC ([1]; ATCC29213, Table 19 summary): 3130 µg/mL; MIC [6, 15]: 12500 µg/mL; Sol. [7]: 51%; MIC ([8]; ATCC27853, Table 19 summary): 6250 µg/mL; MIC [8, 16]: 6250 µg/mL; MIC [8, 17]: 6250 µg/mL; MIC [9, 18]: 3130 µg/mL; MIC [9, 19]: 3130 µg/mL; MIC [9, 20]: 3130 µg/mL

— US20140357713A1, “ANTIMICROBIAL COMPOUNDS AND METHODS OF USE” (NexMed Holdings, Inc., priority 2012, published 2014)
